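Interpolation was linear, between the two tested concentrations surrounding the appropriate level; five concentrations were tested over 48 hours in 96-well plates. Here, GI50 denotes the concentration required for 50% inhibition of growth.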 Activity calls are given as the source filed them. Rule as the data show it: active = GI50 up to about 1.1 µM and inactive = higher.
Legend:
Assay in all cases: DTP human tumour cell line panel, 48 h
A549 = tested on: A549
ACHN = tested on: ACHN
BT-549 = tested on: BT-549
COLO 205 = tested on: COLO 205
HOP-62 = tested on: HOP-62
IGROV-1 = tested on: IGROV-1
K562 = tested on: K562
KM12 = tested on: KM12
M14 = tested on: M14
MOLT-4 = tested on: MOLT-4
Malme-3M = tested on: Malme-3M
NCI-H460 = tested on: NCI-H460
NCI/ADR-RES = tested on: NCI/ADR-RES
OVCAR-3 = tested on: OVCAR-3
OVCAR-4 = tested on: OVCAR-4
PC-3 = tested on: PC-3
SK-MEL-28 = tested on: SK-MEL-28
TK-10 = tested on: TK-10
UACC-62 = tested on: UACC-62

Measured: GI50

CCCCCc1c(CCCC)c(=O)[nH]c2cc(CNCC(OC)OC)ccc12
inactive: A549 12.6 µM | ACHN 14.4 µM | BT-549 14.8 µM | COLO 205 2.41 µM | HOP-62 18.2 µM | IGROV-1 14.9 µM | K562 1.9 µM | KM12 11.7 µM | M14 2.81 µM | MOLT-4 5.33 µM | Malme-3M 2.83 µM | NCI-H460 10.5 µM | NCI/ADR-RES 12.4 µM | OVCAR-3 17.3 µM | OVCAR-4 14.7 µM | PC-3 12.2 µM | SK-MEL-28 5.71 µM | TK-10 15 µM | UACC-62 5.85 µM

Cc1cnc2sn(-c3ccc([N+](=O)[O-])cc3)c(=O)c2c1
inactive: A549 64.3 µM | ACHN 29.4 µM | BT-549 43.2 µM | COLO 205 > 100 µM | HOP-62 14.9 µM | IGROV-1 57.3 µM | K562 > 100 µM | KM12 > 100 µM | M14 > 100 µM | MOLT-4 > 100 µM | Malme-3M > 100 µM | NCI-H460 60.4 µM | NCI/ADR-RES > 100 µM | OVCAR-3 36.1 µM | OVCAR-4 94.8 µM | PC-3 66.2 µM | SK-MEL-28 > 100 µM | TK-10 75.2 µM | UACC-62 64.7 µM

CCNc1nc(N)c(C(=O)c2cccs2)s1
inactive: A549 29.8 µM | ACHN 22.3 µM | BT-549 20.8 µM | COLO 205 7.05 µM | HOP-62 30.9 µM | IGROV-1 10.6 µM | K562 25.9 µM | KM12 11.8 µM | M14 37.8 µM | MOLT-4 17.6 µM | Malme-3M 43.3 µM | NCI-H460 20.4 µM | NCI/ADR-RES 35 µM | OVCAR-3 22 µM | OVCAR-4 21.1 µM | PC-3 31.5 µM | SK-MEL-28 31 µM | TK-10 48 µM | UACC-62 24.2 µM

O=S(=O)(c1ccc(/N=N/O)nc1)c1ccc2ccccc2c1
inactive: A549 > 100 µM | ACHN > 100 µM | BT-549 > 100 µM | COLO 205 97.3 µM | HOP-62 > 100 µM | IGROV-1 54.8 µM | K562 75 µM | KM12 > 100 µM | M14 > 100 µM | MOLT-4 > 10 µM | Malme-3M 26.5 µM | NCI-H460 65.8 µM | NCI/ADR-RES > 100 µM | OVCAR-3 > 100 µM | OVCAR-4 32.6 µM | PC-3 38.5 µM | SK-MEL-28 > 100 µM | TK-10 94 µM | UACC-62 98.4 µM

CCOC(=O)N1CCN(c2ccc3ccc(N)nc3n2)CC1
inactive: A549 > 100 µM | ACHN > 100 µM | BT-549 > 100 µM | COLO 205 > 100 µM | HOP-62 > 100 µM | IGROV-1 > 100 µM | K562 > 100 µM | KM12 > 100 µM | M14 > 100 µM | MOLT-4 74.1 µM | Malme-3M > 100 µM | NCI-H460 71.6 µM | NCI/ADR-RES > 100 µM | OVCAR-3 > 100 µM | OVCAR-4 > 100 µM | PC-3 > 100 µM | SK-MEL-28 > 100 µM | TK-10 > 100 µM | UACC-62 > 100 µM

Cc1ccc(/N=C2/SC(c3ccc(C)cc3)(c3ccc(C)cc3)c3ccccc32)cc1
inactive: A549 > 100 µM | ACHN > 100 µM | BT-549 > 100 µM | COLO 205 > 100 µM | HOP-62 > 100 µM | IGROV-1 > 100 µM | K562 > 100 µM | KM12 > 100 µM | M14 > 100 µM | MOLT-4 > 100 µM | Malme-3M > 100 µM | NCI-H460 > 100 µM | NCI/ADR-RES > 100 µM | OVCAR-3 > 100 µM | OVCAR-4 > 100 µM | PC-3 > 100 µM | SK-MEL-28 > 100 µM | TK-10 > 100 µM | UACC-62 > 100 µM

Clc1ccc2c(c1)N(CCCN1CCCC13CCCCC3)c1ccccc1S2
inactive: A549 17.3 µM | ACHN 20.3 µM | BT-549 14.9 µM | COLO 205 > 39.2 µM | HOP-62 16.3 µM | IGROV-1 12.3 µM | K562 3.95 µM | KM12 13.8 µM | M14 13.6 µM | MOLT-4 3.76 µM | Malme-3M 14.2 µM | NCI-H460 7.48 µM | NCI/ADR-RES 14.7 µM | OVCAR-3 14.1 µM | OVCAR-4 15.4 µM | PC-3 8.04 µM | SK-MEL-28 14.9 µM | TK-10 14.5 µM | UACC-62 16.6 µM

COc1ccc2nc(N/N=C/C(C)=N/Nc3cc(C)c4cc(OC)ccc4n3)cc(C)c2c1
inactive: A549 19.7 µM | ACHN 26.7 µM | BT-549 74.3 µM | COLO 205 23.2 µM | HOP-62 28.6 µM | IGROV-1 21 µM | K562 3.9 µM | KM12 18.7 µM | M14 39.1 µM | MOLT-4 21.2 µM | Malme-3M 50.9 µM | NCI-H460 14.7 µM | NCI/ADR-RES 22 µM | OVCAR-3 26.5 µM | OVCAR-4 18.5 µM | PC-3 22.3 µM | SK-MEL-28 35.2 µM | TK-10 30.5 µM | UACC-62 30.8 µM

COc1ccc(-c2c3c(n(C4OC(CO)C(O)C(O)C4O)c(=S)c2C#N)CC(C)(C)CC3=O)cc1 (stereo not given)
inactive: A549 > 100 µM | ACHN > 100 µM | BT-549 > 100 µM | COLO 205 > 100 µM | HOP-62 > 100 µM | IGROV-1 > 100 µM | K562 > 100 µM | KM12 > 100 µM | M14 > 100 µM | MOLT-4 79.4 µM | Malme-3M > 100 µM | NCI-H460 > 100 µM | NCI/ADR-RES > 100 µM | OVCAR-3 > 100 µM | OVCAR-4 > 100 µM | PC-3 > 100 µM | SK-MEL-28 > 100 µM | TK-10 > 100 µM | UACC-62 97.3 µM

O=C1CC(Cl)c2c1csc2Br (stereo not given)
inactive: A549 19 µM | ACHN 15.6 µM | BT-549 19.9 µM | COLO 205 15.2 µM | HOP-62 14.5 µM | IGROV-1 16.5 µM | K562 17.6 µM | KM12 13.2 µM | M14 13.9 µM | MOLT-4 3.66 µM | Malme-3M 15.7 µM | NCI-H460 20.4 µM | NCI/ADR-RES 20.9 µM | OVCAR-3 16.3 µM | OVCAR-4 25.9 µM | PC-3 12.8 µM | SK-MEL-28 17.8 µM | TK-10 16 µM | UACC-62 15.3 µM

Source: ChEMBL document CHEMBL1201862, “PubChem BioAssay data set” (2004)
